Laboratory results as given in patent US20260124213A1, “STAPHYLOCOCCUS AUREUS PBP4 INHIBITORS AND METHOD OF USE” (UNIVERSITY OF ROCHESTER, priority 2022, published 2026).
Several values for one entry are separate records, joined by “and”; a condition that tells them apart may be missing. Equal values may be shown once. Read-outs that look alike come from different tables or passages of the source.

Key:
[1] = molecular target: recombinant B. subtilis PBP4 (Bacillus subtilis, UniProt P40750); assay: BOCILLIN FL fluorescence polarization binding competition
Description: PBP4 BOCILLIN™ FL Binding Competition Assays. The ability of putative PBP4 inhibitors to impact the active site of recombinant PBP4 was assessed using two previously established BOCILLIN™-FL Penicillin (Penicillin V conjugated to BODIPY fluorescent dye) binding assays. First, fluorescence polarization assays were performed as previously described. Briefly, the indicated amount of the putative PBP4 inhibitor or control antibiotic was incubated with 1 μM recombinant B. subtilis PBP4 or S. aureus PBP2a in potassium phosphate buffer (40 mM K2HPO4 and 10 mM KH2PO4) for 1 hour in black 96-well microtiter plates (Corning Life Sciences®, Corning, NY). Following incubation, 1 μM (final concentration) BOCILLIN™ FL penicillin was added, and the mixture was incubated for 30 minutes. BOCILLIN™ FL fluorescence polarization was measured at (495nm excitation and 545nm emission) in a SpectraMax® M5 multimode plate reader (Molecular Devices®, San Jose, CA). All assays were repeated at least 8 times, averaged, and values falling outside of 2 standard deviations were considered outliers. Resulting data was plotted as percentage BOCILLIN™ FL binding inhibition=(T/U)×100; T=FL polarization of ((PBP4+BOCILLIN™ FL)−(PBP4+BOCILLIN™ FL+inhibitor compound)), U=FL polarization of ((PBP4+BOCILLIN™ FL)−(BOCILLIN™ FL)). Second, gel electrophoresis and fluorescence detection were used to measure BOCILLIN™ FL labeling of PBP4 treated with the known PBP4 inhibitor cefoxitin (positive control), kanamycin (negative control) or 9314848 (test compound). Briefly, 1 μM of recombinant PBP4 was mixed with 0, 50, 500, 2000, or 5000 μM 9314848 or control antibiotic in 50 mM phosphate buffer (pH 7.4) and incubated at 37° C. for 30 minutes. Next 40 μM of BOCILLIN™ FL was added to the reaction mixture and incubated for an additional 30 minutes at 37° C. Reactions were stopped by adding 5×SDS-PAGE gel loading dye, heated at 100° C. for 3 minutes and separated by electrophoresis in 12% SDS-PAGE (2 h, 120 Volts). BOCILLIN™ FL labeled PBP4 was imaged at λ=365 nm using a BioRad© Gel Doc EZ™ Imaging system and the gel was then subsequently stained with Bio-safe Coomassie Brilliant Blue stain (BioRad©, Hercules, CA, USA) to measure the amount of protein present in each reaction condition and analyzed using NIH-ImageJ software. The percent BOCILLIN™ FL binding was calculated by first normalizing the protein present in each reaction condition to that of untreated control and subsequently applying each reaction's protein normalization factor to each reaction's fluorescent signal. The percentage BOCILLIN™ FL binding inhibition was then calculated as the normalized band intensity of antibiotic/compound treated sample as compared to control sample (PBP4+BOCILLIN™ FL in the absence of compound).
To more directly evaluate whether 9314848 is likely to affect PBP4 function, the compound's ability to bind recombinant PBP4 was measured using BOCILLIN™ FL fluorescence polarization displacement assays. The premise for the assay is that the fluorescence polarization of the fluorescently labeled β-lactam, penicillin V (BOCILLIN™ FL), will increase upon binding to its cognate target (i.e., PBP4). Further, compounds that bind PBP4 and inhibit its function would impede BOCILLIN™ FL binding thereby allowing assessment of the protein binding affinity of 9314848 using a simple fluorescence reduction assay.

recombinant PBP4 = assay: BOCILLIN FL labeling of PBP4, gel electrophoresis and fluorescence detection; assay type: binding; conditions: kanamycin 2000 μM or 5000 μM
Description: PBP4 BOCILLIN™ FL Binding Competition Assays. The ability of putative PBP4 inhibitors to impact the active site of recombinant PBP4 was assessed using two previously established BOCILLIN™-FL Penicillin (Penicillin V conjugated to BODIPY fluorescent dye) binding assays. First, fluorescence polarization assays were performed as previously described. Briefly, the indicated amount of the putative PBP4 inhibitor or control antibiotic was incubated with 1 μM recombinant B. subtilis PBP4 or S. aureus PBP2a in potassium phosphate buffer (40 mM K2HPO4 and 10 mM KH2PO4) for 1 hour in black 96-well microtiter plates (Corning Life Sciences®, Corning, NY). […] BOCILLIN™ FL fluorescence polarization was measured at (495nm excitation and 545nm emission) in a SpectraMax® M5 multimode plate reader (Molecular Devices®, San Jose, CA). […] Second, gel electrophoresis and fluorescence detection were used to measure BOCILLIN™ FL labeling of PBP4 treated with the known PBP4 inhibitor cefoxitin (positive control), kanamycin (negative control) or 9314848 (test compound). […] BOCILLIN™ FL labeled PBP4 was imaged at λ=365 nm using a BioRad© Gel Doc EZ™ Imaging system and the gel was then subsequently stained with Bio-safe Coomassie Brilliant Blue stain (BioRad©, Hercules, CA, USA) to measure the amount of protein present in each reaction condition and analyzed using NIH-ImageJ software. […]

MRSA strain AH-1263 = assay: Broth microdilution antibiotic potentiation; assay type: cell-based, Staphylococcus aureus; conditions: for MIC: Staphylococcus aureus, MRSA
Description: (§1) Broth Microdilution Method for Antibiotic Potentiation with MRSA Strains. Bacteria were cultured for 6 hours in CAMHB and sub-cultured to 5×10^5 CFU/mL in CAMHB. Subcultures were aliquoted (4 mL) into culture tubes and then inoculated with compound from 10 mM or 100 mM stock in DMSO to the desired concentration. […]. Bacteria treated with antibiotic alone served as the control. Samples from the secondary culture tubes were then aliquoted (200 μL) into the first row of wells of a 96-well microtiter plate. Rows 2-11 were filled (100 μL) with the remaining 4 mL of bacterial subculture containing the adjuvant. Row 12 was filled (100 μL) with uninoculated media. From row 1, 100 μL was transferred to row two and mixed 5-8 times before being transferred to row 3. This procedure was used to serial dilute the rest of the rows through 10. The microtiter plate was then covered in Press 'n Seal and incubated at 37° C.

MRSA strain AH-2204 = assay: Broth microdilution antibiotic potentiation; assay type: cell-based, Staphylococcus aureus; conditions: Staphylococcus aureus, MRSA
Description: as §1

[2] = test system: MRSA strain ATCC BAA-1556; assay: Broth microdilution antibiotic potentiation; assay type: cell-based, Staphylococcus aureus; conditions: for MIC: Staphylococcus aureus
Description: as §1

MRSA strain 700699 = assay: Broth microdilution antibiotic potentiation; assay type: cell-based; conditions: Staphylococcus aureus, read-out: Oxacillin MIC, no compound (—)
Description: as §1

MRSA strain BAA-1685 = assay: Broth microdilution antibiotic potentiation; assay type: cell-based; conditions: Staphylococcus aureus, read-out: Oxacillin MIC, no compound (—)
Description: as §1

MRSA strain BAA-44 = assay: Broth microdilution antibiotic potentiation; assay type: cell-based; conditions: Staphylococcus aureus, read-out: Oxacillin MIC, no compound (—)
Description: as §1

MRSA strain BAA-811 = assay: Broth microdilution antibiotic potentiation; assay type: cell-based; conditions: Staphylococcus aureus, read-out: Oxacillin MIC, no compound (—)
Description: as §1

MRSA strain 43300 = assay: Broth microdilution antibiotic potentiation; assay type: cell-based; conditions: Staphylococcus aureus, read-out: Oxacillin MIC, no compound (—)
Description: (§2) Broth Microdilution Method for Antibiotic Potentiation with MRSA Strains. Bacteria were cultured for 6 hours in CAMHB and sub-cultured to 5×10^5 CFU/mL in CAMHB. Subcultures were aliquoted (4 mL) into culture tubes and then inoculated with compound from 10 mM or 100 mM stock in DMSO to the desired concentration. […] Bacteria treated with antibiotic alone served as the control. Samples from the secondary culture tubes were then aliquoted (200 μL) into the first row of wells of a 96-well microtiter plate. Rows 2-11 were filled (100 μL) with the remaining 4 mL of bacterial subculture containing the adjuvant. Row 12 was filled (100 μL) with uninoculated media. From row 1, 100 μL was transferred to row two and mixed 5-8 times before being transferred to row 3. This procedure was used to serial dilute the rest of the rows through 10. The microtiter plate was then covered in Press 'n Seal and incubated at 37° C.

MRSA strain 700789 = assay: Broth microdilution antibiotic potentiation; assay type: cell-based; conditions: Staphylococcus aureus, read-out: Oxacillin MIC, no compound (—)
Description: as §2

MRSA strain BAA-1770 = assay: Broth microdilution antibiotic potentiation; assay type: cell-based, Staphylococcus aureus; conditions: Staphylococcus aureus, read-out: Oxacillin MIC, no compound (—)
Description: as §2

Chain of recombinant B. subtilis PBP4 (P40750 22-624): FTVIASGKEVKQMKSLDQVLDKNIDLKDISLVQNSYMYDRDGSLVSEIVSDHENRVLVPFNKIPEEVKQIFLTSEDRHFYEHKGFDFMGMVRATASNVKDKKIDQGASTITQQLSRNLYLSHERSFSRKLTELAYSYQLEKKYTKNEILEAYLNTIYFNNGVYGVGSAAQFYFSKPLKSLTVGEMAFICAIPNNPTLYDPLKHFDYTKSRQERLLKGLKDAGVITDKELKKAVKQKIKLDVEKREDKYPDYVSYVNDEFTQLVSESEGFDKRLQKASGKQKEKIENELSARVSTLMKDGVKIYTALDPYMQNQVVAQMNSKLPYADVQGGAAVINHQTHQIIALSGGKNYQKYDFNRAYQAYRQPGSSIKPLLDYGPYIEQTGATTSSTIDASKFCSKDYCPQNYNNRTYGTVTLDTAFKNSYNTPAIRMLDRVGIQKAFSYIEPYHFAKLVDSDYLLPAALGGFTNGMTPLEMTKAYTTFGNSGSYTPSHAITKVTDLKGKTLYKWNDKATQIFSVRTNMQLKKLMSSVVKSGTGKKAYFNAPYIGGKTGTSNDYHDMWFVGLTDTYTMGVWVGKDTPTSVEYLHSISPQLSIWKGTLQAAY

SMILES	Effect of preincubation on BOCILLIN FL binding to PBP4 (fluorescence polarization) [1]	Concentration of maximum BOCILLIN FL binding inhibition ([1]; dose-response 0-50 μM) [µM]	Effect of preincubation on BOCILLIN FL labeling of PBP4 (gel) (recombinant PBP4)	MIC (MRSA strain AH-1263; AH-1263, read-out: Ampicillin MIC, no compound (—)) [µg/mL]	MIC (MRSA strain AH-2204; AH-2204, read-out: Ampicillin MIC, no compound (—)) [µg/mL]	MIC ([2]; ATCC BAA-1556, read-out: Ampicillin MIC, no compound (—)) [µg/mL]	Oxacillin MIC, no compound (—) (MRSA strain AH-1263; AH-1263) [µg/mL]	MIC (MRSA strain AH-1263; read-out: Oxacillin MIC, no compound (—), AH-1263) [µg/mL]	MIC (MRSA strain AH-2204; read-out: Oxacillin MIC, no compound (—), AH-2204) [µg/mL]	Oxacillin MIC, no compound (—) ([2]; ATCC BAA-1556)	MIC ([2]; read-out: Oxacillin MIC, no compound (—), ATCC BAA-1556) [µg/mL]	MIC (MRSA strain 700699) [µg/mL]	MIC (MRSA strain BAA-1685) [µg/mL]	MIC (MRSA strain BAA-44) [µg/mL]	MIC (MRSA strain BAA-811) [µg/mL]	MIC (MRSA strain 43300) [µg/mL]	MIC (MRSA strain 700789) [µg/mL]	MIC (MRSA strain BAA-1770) [µg/mL]
CC1(C)S[C@@H]2[C@H](NC(=O)[C@H](N)c3ccccc3)C(=O)N2[C@H]1C(=O)O [Ampicillin, ampicillin]	limited BOCILLIN™ FL binding	25 to 50	reduced the protein's ability to bind the fluorescent substrate in a dose-dependent manner	16	2	16	–	–	–	–	–	–	–	–	–	–	–	–
Cc1onc(-c2ccccc2)c1C(=O)N[C@@H]1C(=O)N2[C@@H]1SC(C)(C)[C@@H]2C(=O)O [Oxacillin, oxacillin]	–	–	–	–	–	–	32	16	32	32 µg/mL and 16 µg/mL	32	16	64	16	256	512	256	512
